Results taken from patent US20070027190A1, “Antibacterial fab i inhibitors” (priority 2003, published 2007).
pIC50: −log10 of the molar value. Values after ≈ are worked out from the molar mass of the structure shown. Read-outs that look alike come from different tables or passages of the source.

Legend:
[1] = test system: methicillin resistant Staphyloccocus aureus (MRSA, strain ATCC 700699); experiment: MIC against methicillin resistant S. aureus (NCCLS dilution); type: cell-based; conditions: Staphylococcus aureus, serial two-fold dilutions, 96-well
Procedure: The sensitivity of methicillin resistant Staphyloccocus aureus (MRSA, strain ATCC 700699, American Type Culture Collection, Manassas, Va.) to the disclosed fabI inhibitors was followed by measuring the minimal inhibitory concentration (MIC) at varying inhibitor levels. This was performed according to NCCLS (National Center for Clinical Laboratory Standards) recommendations (NCCLS, 1997, METHODS FOR DILUTION ANTIMICROBIAL SUSCEPTIBILITY TESTS FOR BACTERIA THAT GROW AEROBICALLY, 4th ed.; approved standard. NCCLS document M7-A4. NCCLS, Wayne, Pa.), in 100 μl volume in 96-well format, with serial two-fold dilutions of drug concentration.

E. coli fabI = molecular target: T1, E. coli fabI (Escherichia coli, UniProt P0AEK4); experiment: fabI kinetic assay (NADH absorption at 340 nm, crotonoyl-CoA substrate); type: biochemical
T1 construct: made in house; host or cells: E. coli BL21(DE3)
T1 sequence (P0AEK4 whole entry): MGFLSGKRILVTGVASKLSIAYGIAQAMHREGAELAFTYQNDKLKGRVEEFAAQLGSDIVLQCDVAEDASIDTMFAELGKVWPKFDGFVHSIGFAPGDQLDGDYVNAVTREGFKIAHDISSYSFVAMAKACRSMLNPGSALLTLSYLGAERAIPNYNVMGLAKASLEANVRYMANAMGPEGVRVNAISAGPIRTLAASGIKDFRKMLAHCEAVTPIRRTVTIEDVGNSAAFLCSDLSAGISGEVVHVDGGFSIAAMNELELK
Procedure: In order to perform more detailed kinetic assays on the disclosed compounds, additional purifed fabI was needed. The E. coli fabI gene was cloned into the pET30a expression vector (Novagen, Inc., Madison, Wis.) and expressed in E. coli BL21(DE3) cells. The purification procedure utilized chromatography with Q-sepharose, blue resin, and HA resin as follows.
Each cell pellet was suspended in a 4 fold-volume of lysis buffer (50 mM KH2PO4 pH 8.0, 100 mM NaCl, 2 mM ethylene glycol tetra-acetic acid (EGTA), and 10% glycerol). Cells were broken by passage through a Microfludics cell disrupter 4 times, and the cell lysate was centrifuged at 30,000×g for 20 minutes. The supernatant was applied to a Q-sepharose column pre-equilibrated in a buffer composed of 10 mM Tris-HCl pH 8.0, 0.1 mM EGTA, 1 mM phenylmethylsulfonylfluoride (PMSF), 100 mM NaCl, 10% glycerol, 0.1% β-mercaptoethanol, and 0.02% Brij 35. fabI was eluted with a NaCl gradient (0.1-1M) in the equilibration buffer. The major peak fractions were pooled and concentrated, then dialyzed overnight at 4° C. in 2 L of dialysis buffer (10 mM Tris-HCl pH 7.5, 0.1 mM EGTA, 0.1 mM PMSF, 10% glycerol, 0.1% β-mercaptoethanol, and 0.02% Brij 35). The dialyzed solution was centrifuged at 3,000×g for 20 minutes, and the supernatant was loaded on a blue resin column pre-equilibrated in a buffer composed of 10 mM Tris-HCl pH 7.5, 0.1 mM EGTA, 1 mM PMSF, 50 mM NaCl, 10% glycerol, 0.1% β-mercaptoethanol, and 0.02% Brij 35. fabI was eluted with the equilibration buffer containing NaCl (gradient 50˜1000 mM). The major peak fractions were pooled and dialyzed overnight at 4° C. in 2 L of the equilibration buffer as described above. Then the dialyzed solution was centrifuged at 3,000×g for 20 minutes, and the supernatant was further purified on a hydroxyapatite column pre-equilibrated in a buffer consisting of 20 mM KH2PO4 pH 8.0, 0.1 mM EGTA, 0.1 mM PMSF, 10% glycerol, 0.1% β-mercaptoethanol, and 0.02% Brij 35. fabI was eluted with a gradient of KH2PO4 up to 500 mM. The peak fractions were pooled and dialyzed in storage buffer (10 mM MOPS pH7.0, 150 mM NaCl, 0.1 mM EGTA, 50% glycerol, 0.02% Brij 35), then stored at −20° C.
The kinetic assay was used to confirm the activity of compounds identified by the single-point assay and screen and to measure the IC50 of compounds which inhibit fabI. It was performed in a 96 well microtiter dish. The final concentrations of each component in each 50 μl reaction are as follows—sodium phosphate pH 7.5, 100 mM; NADH, 200 uM; dithiothreitol (DTT), 1 mM; fabI, 3 ug/ml; crotonoyl-CoA, 0.8 mM.
A 2 ul volume of each compound to be tested was loaded into each well, followed by 30 ul Buffer A (sodium phosphate pH7.5, 100 mM; DTT, 1 mM; fabI, 5 ug/ml, obtained as described below). For IC50 measurements, the compound was tested in serial dilution. The reaction was initiated by adding 20 ul Buffer B (sodium phosphate pH7.5, 100 mM; NADH, 500 uM; DTT, 1 mM; and the substrate, crotonoyl-CoA, 2 mM). The reaction was monitored for 5.5 minutes on a spectrometer by measuring absorption at 340 nm. The rate of reduction of NADH in each reaction well was collected and the percentage inhibition was calculated by using SOFTmax® PRO software (Molecular Devices, Sunnyvale, Calif.). The percentage of inhibition of each compound was calculated according to following formula: Percentage Inhibition=100*(rate in the presence of compound-rate of negative control)/(rate of positive control-rate of negative control)
The negative control was the reaction of fabI in the presence of 2% DMSO but no inhibitory compounds, and the positive control was the mixture of the all reaction components excluding fabI.

[2] = test system: fabI (acetate incorporation into fatty acids) in S. aureus strain ATCC 700699; experiment: 14C acetate incorporation into fatty acids in S. aureus; type: cell-based; conditions: 0.25x-2x MIC; 0-30 min at 37° C.; FIG. 1
Procedure: Radioactive (14C) acetic acid was added to 0.4 uCi/ml. After incubation at 37° C. for 0, 5, 10, 15, and 30 minutes, samples were taken, and cells were added to ice cold 10% trichloroacetic acid (TCA) for 30 min. Next, cells were filtered (Millipore MultiScreen-FC filters), washed 2× with 200 ul and 1× with 100 ul cold 10% TCA followed by 2× with 200 ul and 1× with 100 ul cold water. The filters were added to 5 ml scintillation fluid and counts per minute were measured in a scintillation counter. The % inhibition of acetate incorporation into fatty acids was determined by comparison to a control consisting of cells not treated with inhibitor.

[3] = test system: strain of Staphylococcus aureus that under-expresses a fabI gene under control of a regulated promoter; experiment: MIC in IPTG-regulated fabI under-expressing S. aureus strain; type: cell-based
Excerpt: In general, a bacterial strain which is under-producing the target of interest will be more sensitive to test compounds than a wild-type strain if the compound is acting via inhibition of that target. Accordingly, a strain of Staphylococcus aureus that under-expresses a fabI gene under control of a regulated promoter was constructed.
First, the endogenous S. aureus fabI gene was replaced with a drug-resistance marker (erythromycin-resistance, erm^r) in a two-step allele-replacement procedure (see F. Fan et al., Plasmid, 2001, 46: 71-75). About 1 Kb of DNA sequence flanking each side of the S. aureus fabI gene (SwissProt Q9RMI3; M. Kuroda et al., Lancet 2001, 357:1225-1240) was PCR-amplified from genomic DNA, ligated to an erythromycin-resistance cassette by cross-over PCR (A. J. Link et al., J. Bacteriol., 1997, 179: 6228-6237), and cloned into an allele-replacement suicide vector carrying a kanamycin-resistance marker (kan^r) and the sacB gene encoding levansucrase. This allele-replacement plasmid was introduced by electroporation into an S. aureus host strain carrying the E. coli lactose operon repressor (lacI) and a lac-promoter driving T7 RNA polymerase production from the chromosome. Selection for kan^r yielded cells containing the entire plasmid by means of a single cross-over recombination. […]

| SMILES | MIC [1] [µg/mL] | pIC50 (E. coli fabI) | inhibition of acetate incorporation into fatty acids (activity of fabI) [2] | MIC ([3]; read-out: minimum inhibitory concentration (MIC), fabI regulated by IPTG, before the inducer (IPTG) level was reduced) [µg/mL] | MIC ([3]; read-out: minimum inhibitory concentration (MIC), fabI regulated by IPTG, inducer (IPTG) level reduced) [µg/mL] | pIC50 (E. coli fabI; purified E. coli fabI 3 ug/ml, NADH 200 uM, crotonoyl-CoA 0.8 mM, pH 7.5, read-out: IC50) |
| --- | --- | --- | --- | --- | --- | --- |
| N#Cc1c(-c2ccc(Cl)cc2)cc(-c2cccs2)nc1SCC(N)=O [Q] | > 64 | 4.48 |  |  |  |  |
| N#Cc1c(-c2cccs2)cc(-c2cccs2)nc1SCc1ccc(C(=O)O)cc1 [Compound A] | 2 (≈ 4.6 µM) | 5.40 | marked inhibition | 8 | 4 |  |
| N#Cc1c(-c2cccs2)cc(-c2cccs2)nc1SC(C(=O)O)c1ccccc1 (centres unmarked) [Compound C] | 32 (≈ 73.6 µM) | 4.91 |  |  |  |  |
| N#Cc1c(-c2cccs2)cc(-c2cccs2)nc1SCCC(=O)O [P] |  |  |  |  |  | 4.06 |
| CC(C)NC(=O)CSc1nc(-c2cccs2)cc(-c2ccc(F)cc2)c1C#N [B] | > 64 | 4.92 |  |  |  |  |
| N#Cc1c(-c2cccs2)cc(-c2cccs2)nc1SCc1cccc(C(=O)O)c1 [G] | 1.5 (≈ 3.45 µM) | 5.22 |  |  |  |  |
| CC(Sc1nc(-c2cccs2)cc(-c2cccs2)c1C#N)c1ccc(C(=O)O)cc1 (centres unmarked) [F] | 0.75 (≈ 1.67 µM) | 5.52 |  |  |  |  |
| N#Cc1c(-c2cccs2)cc(-c2cccs2)nc1SCc1ccc(CC(=O)O)cc1 [H] | 4 (≈ 8.92 µM) | 4.60 |  |  |  |  |
| N#Cc1c(-c2cccs2)cc(-c2cccs2)nc1SCCc1ccc(C(=O)O)cc1 [E] | 0.75 (≈ 1.67 µM) | 5.52 |  |  |  |  |
| COc1ccc(NC(=O)CSc2nc(-c3cccs3)cc(-c3ccc(F)cc3)c2C#N)cc1OC [D] | > 64 | 5.04 |  |  |  |  |
| COc1ccc(-c2cc(-c3ccco3)c(C#N)c(SCc3ccc(C(=O)O)cc3)n2)cc1 [I] | 8 (≈ 18.1 µM) | 4.60 |  |  |  |  |
| CC(C)NC(=O)CSc1nc(-c2cccs2)cc(-c2ccc(Cl)cc2)c1C#N [N] | > 64 | 4.34 |  |  |  |  |
